# Earlier results, collected in patent US9480645B2, “Omega-3 oil containing ophthalmic emulsions” (Abbott Medical Optics Inc., priority 2009, dated 2016).
# Conditions: generally as reported by the manufacturer of the commercial product
row,HLB,Substance
1,4.7,Sorbitan monostearate
2,4.3,Sorbitan monooleate
3,6.7,Sorbitan monopalmitate
